Laboratory results reported in the supplement of paper PMC8967900.

Assays:
Assay in all cases: selective drug sensitivity score (sDSS, relative to normal bone marrow) (sDSS (score)); higher = more potent and effective on the cell line relative to normal bone marrow cells
Conditions in all cases: 72 h
RPMI-8402 = test system: RPMI-8402
MHH-CALL-3 = test system: MHH-CALL-3
KASUMI-2 = test system: KASUMI-2
DND-41 = test system: DND-41
MOLT-4 = test system: MOLT-4
COG-LL-402h = test system: COG-LL-402h
KARPAS-45 = test system: KARPAS-45
NALM-16 = test system: NALM-16
RCH-ACV = test system: RCH-ACV
COG-LL-394h = test system: COG-LL-394h
ALL-SIL = test system: ALL-SIL
380 = test system: 380
COG-LL-332h = test system: COG-LL-332h
CCRF-CEM = test system: CCRF-CEM
KASUMI-10 = test system: KASUMI-10
NALM-6 = test system: NALM-6
MOLT-14 = test system: MOLT-14
P12-ICHIKAWA = test system: P12-ICHIKAWA
PF-382 = test system: PF-382
HPB-ALL = test system: HPB-ALL
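Note: ALL cell lines in 384-well plates, five doses spanning 10,000-fold, each plate scaled between vehicle and 100 µmol/L benzalkonium chloride controls, sDSS an adapted area-under-curve metric.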

CC#CC(=O)N1CC[C@@H](n2c(=O)n(-c3ccc(Oc4ccccc4)cc3)c3c(N)ncnc32)C1 [Tirabrutinib] (top concentration 1000 nM)
selective drug sensitivity score (RPMI-8402): 0 | selective drug sensitivity score (MHH-CALL-3): 1.7 | selective drug sensitivity score (KASUMI-2): 2.9 | selective drug sensitivity score (DND-41): 2.3 | selective drug sensitivity score (MOLT-4): 0 | selective drug sensitivity score (COG-LL-402h): 5.2 | selective drug sensitivity score (KARPAS-45): 2.5 | selective drug sensitivity score (NALM-16): 0 | selective drug sensitivity score (RCH-ACV): 11 | selective drug sensitivity score (COG-LL-394h): 0 | selective drug sensitivity score (ALL-SIL): 0 | selective drug sensitivity score 380: 1.2 | selective drug sensitivity score (COG-LL-332h): 1.8 | selective drug sensitivity score (CCRF-CEM): 0 | selective drug sensitivity score (KASUMI-10): 0 | selective drug sensitivity score (NALM-6): 0 | selective drug sensitivity score (MOLT-14): 0 | selective drug sensitivity score (P12-ICHIKAWA): 0 | selective drug sensitivity score (PF-382): 0 | selective drug sensitivity score (HPB-ALL): 0

CC(C)C[C@@H](C(=O)N[C@H](C(=O)OC1CCCC1)c1ccccc1)[C@H](O)C(=O)NO [Tosedostat] (top concentration 10000 nM)
selective drug sensitivity score (RPMI-8402): 2.86 | selective drug sensitivity score (MHH-CALL-3): 15.3 | selective drug sensitivity score (KASUMI-2): -5.44 | selective drug sensitivity score (DND-41): 5.16 | selective drug sensitivity score (MOLT-4): -0.54 | selective drug sensitivity score (COG-LL-402h): -0.74 | selective drug sensitivity score (KARPAS-45): 8.66 | selective drug sensitivity score (NALM-16): 3.06 | selective drug sensitivity score (RCH-ACV): 2.16 | selective drug sensitivity score (COG-LL-394h): 1.26 | selective drug sensitivity score (ALL-SIL): 1.06 | selective drug sensitivity score 380: 5.76 | selective drug sensitivity score (COG-LL-332h): 2.26 | selective drug sensitivity score (CCRF-CEM): 4.36 | selective drug sensitivity score (KASUMI-10): 7.06 | selective drug sensitivity score (NALM-6): -1.04 | selective drug sensitivity score (MOLT-14): 6.46 | selective drug sensitivity score (P12-ICHIKAWA): -0.24 | selective drug sensitivity score (PF-382): 5.66 | selective drug sensitivity score (HPB-ALL): -4.94

CS(=O)(=O)c1ccc(-c2cnc(N)c(C(=O)Nc3ccccc3)n2)cc1 [VE-821] (top concentration 10000 nM)
selective drug sensitivity score (RPMI-8402): 5.54 | selective drug sensitivity score (MHH-CALL-3): -0.06 | selective drug sensitivity score (KASUMI-2): -0.66 | selective drug sensitivity score (DND-41): -0.66 | selective drug sensitivity score (MOLT-4): 3.94 | selective drug sensitivity score (COG-LL-402h): 0.34 | selective drug sensitivity score (KARPAS-45): 1.54 | selective drug sensitivity score (NALM-16): -0.66 | selective drug sensitivity score (RCH-ACV): 7.94 | selective drug sensitivity score (COG-LL-394h): -0.66 | selective drug sensitivity score (ALL-SIL): 4.94 | selective drug sensitivity score 380: 2.54 | selective drug sensitivity score (COG-LL-332h): 4.74 | selective drug sensitivity score (CCRF-CEM): -0.66 | selective drug sensitivity score (KASUMI-10): 2.54 | selective drug sensitivity score (NALM-6): -0.66 | selective drug sensitivity score (MOLT-14): 0.74 | selective drug sensitivity score (P12-ICHIKAWA): 3.14 | selective drug sensitivity score (PF-382): -0.56 | selective drug sensitivity score (HPB-ALL): 5.04

CNC(=O)c1ccccc1Nc1cc(Nc2ccc(N3CCOCC3)cc2OC)ncc1C(F)(F)F [VS-4718] (top concentration 10000 nM)
selective drug sensitivity score (RPMI-8402): 8.8 | selective drug sensitivity score (MHH-CALL-3): -5 | selective drug sensitivity score (KASUMI-2): -5 | selective drug sensitivity score (DND-41): -0.9 | selective drug sensitivity score (MOLT-4): 1.9 | selective drug sensitivity score (COG-LL-402h): -4.5 | selective drug sensitivity score (KARPAS-45): 7.1 | selective drug sensitivity score (NALM-16): 0 | selective drug sensitivity score (RCH-ACV): 0.8 | selective drug sensitivity score (COG-LL-394h): -0.4 | selective drug sensitivity score (ALL-SIL): 4.3 | selective drug sensitivity score 380: -5 | selective drug sensitivity score (COG-LL-332h): -0.3 | selective drug sensitivity score (CCRF-CEM): 2 | selective drug sensitivity score (KASUMI-10): 11.2 | selective drug sensitivity score (NALM-6): 0.4 | selective drug sensitivity score (MOLT-14): 1.1 | selective drug sensitivity score (P12-ICHIKAWA): 1.7 | selective drug sensitivity score (PF-382): -0.3 | selective drug sensitivity score (HPB-ALL): 1.7

Cc1cccc(-c2[nH]c(CNc3ccccc3F)nc2-c2ccc3ncnn3c2)n1 [Vactosertib (TEW-7197)] (top concentration 2500 nM)
selective drug sensitivity score (RPMI-8402): -0.5 | selective drug sensitivity score (MHH-CALL-3): -0.5 | selective drug sensitivity score (KASUMI-2): -0.5 | selective drug sensitivity score (DND-41): 3 | selective drug sensitivity score (MOLT-4): 2.3 | selective drug sensitivity score (COG-LL-402h): 1.1 | selective drug sensitivity score (KARPAS-45): -0.5 | selective drug sensitivity score (NALM-16): -0.4 | selective drug sensitivity score (RCH-ACV): -0.5 | selective drug sensitivity score (COG-LL-394h): -0.5 | selective drug sensitivity score (ALL-SIL): -0.5 | selective drug sensitivity score 380: 0.8 | selective drug sensitivity score (COG-LL-332h): -0.2 | selective drug sensitivity score (CCRF-CEM): -0.5 | selective drug sensitivity score (KASUMI-10): -0.5 | selective drug sensitivity score (NALM-6): -0.5 | selective drug sensitivity score (MOLT-14): 0.8 | selective drug sensitivity score (P12-ICHIKAWA): -0.5 | selective drug sensitivity score (PF-382): -0.5 | selective drug sensitivity score (HPB-ALL): -0.5

O=C(/C=C\n1cnc(-c2cc(C(F)(F)F)cc(C(F)(F)F)c2)n1)NNc1ccccn1 [Verdinexor] (top concentration 1000 nM)
selective drug sensitivity score (RPMI-8402): 8.34 | selective drug sensitivity score (MHH-CALL-3): 20.5 | selective drug sensitivity score (KASUMI-2): 12.9 | selective drug sensitivity score (DND-41): 11.6 | selective drug sensitivity score (MOLT-4): 9.74 | selective drug sensitivity score (COG-LL-402h): 9.34 | selective drug sensitivity score (KARPAS-45): 7.54 | selective drug sensitivity score (NALM-16): -0.36 | selective drug sensitivity score (RCH-ACV): 9.04 | selective drug sensitivity score (COG-LL-394h): 3.64 | selective drug sensitivity score (ALL-SIL): 3.74 | selective drug sensitivity score 380: 12 | selective drug sensitivity score (COG-LL-332h): 7.74 | selective drug sensitivity score (CCRF-CEM): 5.24 | selective drug sensitivity score (KASUMI-10): 1.54 | selective drug sensitivity score (NALM-6): 11.7 | selective drug sensitivity score (MOLT-14): 13.3 | selective drug sensitivity score (P12-ICHIKAWA): 5.64 | selective drug sensitivity score (PF-382): 6.54 | selective drug sensitivity score (HPB-ALL): 1.84

CC[C@@H]1C(=O)N(C)c2cnc(Nc3ccc(C(=O)N[C@H]4CC[C@H](N5CCN(CC6CC6)CC5)CC4)cc3OC)nc2N1C(C)C [Volasertib] (top concentration 1000 nM)
selective drug sensitivity score (RPMI-8402): 20.8 | selective drug sensitivity score (MHH-CALL-3): 2.9 | selective drug sensitivity score (KASUMI-2): 5.7 | selective drug sensitivity score (DND-41): 11.2 | selective drug sensitivity score (MOLT-4): 11.3 | selective drug sensitivity score (COG-LL-402h): 11 | selective drug sensitivity score (KARPAS-45): 19 | selective drug sensitivity score (NALM-16): 11.3 | selective drug sensitivity score (RCH-ACV): 13.9 | selective drug sensitivity score (COG-LL-394h): 7.7 | selective drug sensitivity score (ALL-SIL): 12.7 | selective drug sensitivity score 380: 15 | selective drug sensitivity score (COG-LL-332h): 12 | selective drug sensitivity score (CCRF-CEM): 13.8 | selective drug sensitivity score (KASUMI-10): 8 | selective drug sensitivity score (NALM-6): 11.9 | selective drug sensitivity score (MOLT-14): 13.4 | selective drug sensitivity score (P12-ICHIKAWA): 11.5 | selective drug sensitivity score (PF-382): 13.6 | selective drug sensitivity score (HPB-ALL): 15.5

O=C(CCCCCCC(=O)Nc1ccccc1)NO [Vorinostat] (top concentration 10000 nM)
selective drug sensitivity score (RPMI-8402): 8.2 | selective drug sensitivity score (MHH-CALL-3): 14.1 | selective drug sensitivity score (KASUMI-2): 17.6 | selective drug sensitivity score (DND-41): 2.2 | selective drug sensitivity score (MOLT-4): 5.8 | selective drug sensitivity score (COG-LL-402h): 10.2 | selective drug sensitivity score (KARPAS-45): 9.9 | selective drug sensitivity score (NALM-16): 1.5 | selective drug sensitivity score (RCH-ACV): 16.5 | selective drug sensitivity score (COG-LL-394h): 1 | selective drug sensitivity score (ALL-SIL): 7.5 | selective drug sensitivity score 380: 8.8 | selective drug sensitivity score (COG-LL-332h): 3.4 | selective drug sensitivity score (CCRF-CEM): 5.9 | selective drug sensitivity score (KASUMI-10): 4.6 | selective drug sensitivity score (NALM-6): 2.3 | selective drug sensitivity score (MOLT-14): 9.6 | selective drug sensitivity score (P12-ICHIKAWA): 6.6 | selective drug sensitivity score (PF-382): 4.1 | selective drug sensitivity score (HPB-ALL): 6
